Measurements published in patent US9695155B2, “Herbicidal substituted pyrimidinyloxy benzene compounds” (E. I. DU PONT DE NEMOURS AND COMPANY, priority 2013, dated 2017).

How the values were obtained:
barnyardgrass [1] = assay: Test A preemergence; type: in vivo, Echinochloa crus-galli; details: for Plant response rating, Barnyardgrass: 0 to 100 scale where 0 is no effect and 100 is complete control
In short: (§1)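 Visual 0–100 rating (100 = complete control) taken about 10 d post-treatment relative to untreated checks. Preemergence: directed soil spray on sown loam/sand pots. Postemergence: seedlings 2–10 cm, 1–2 leaf. Non-phytotoxic solvent formulation with surfactant.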

kochia [2] = assay: Test A preemergence; type: in vivo, Kochia scoparia; details: for Plant response rating, Kochia: 0 to 100 scale where 0 is no effect and 100 is complete control
In short: as §1

ragweed [3] = assay: Test A preemergence; type: in vivo, Ambrosia elatior; details: for Plant response rating, Ragweed: 0 to 100 scale where 0 is no effect and 100 is complete control
In short: as §1

Italian ryegrass [4] = assay: Test A preemergence; type: in vivo, Lolium multiflorum; details: for Plant response rating, Ryegrass, Italian: 0 to 100 scale where 0 is no effect and 100 is complete control
In short: as §1

giant foxtail [5] = assay: Test A preemergence; type: in vivo, Setaria faberii; details: for Plant response rating, Foxtail, Giant: 0 to 100 scale where 0 is no effect and 100 is complete control
In short: as §1

pigweed [6] = assay: Test A preemergence; type: in vivo, Amaranthus retroflexus; details: for Plant response rating, Pigweed: 0 to 100 scale where 0 is no effect and 100 is complete control
In short: as §1

barnyardgrass [7] = assay: Test A postemergence; type: in vivo, Echinochloa crus-galli
In short: as §1

kochia [8] = assay: Test A postemergence; type: in vivo, Kochia scoparia
In short: as §1

ragweed [9] = assay: Test A postemergence; type: in vivo, Ambrosia elatior; details: for Plant response rating, Ragweed: 0 to 100 scale, 0 no effect, 100 complete control
In short: as §1

Italian ryegrass [10] = assay: Test A postemergence; type: in vivo, Lolium multiflorum; details: for Plant response rating, Ryegrass, Italian: 0 to 100 scale, 0 no effect, 100 complete control
In short: as §1

giant foxtail [11] = assay: Test A postemergence; type: in vivo, Setaria faberii
In short: as §1

pigweed [12] = assay: Test A postemergence; type: in vivo, Amaranthus retroflexus; details: for Plant response rating, Pigweed: 0 to 100 scale, 0 no effect, 100 complete control
In short: as §1

wheat = assay: Test A postemergence; type: in vivo, Triticum aestivum; details: for Plant response rating, Wheat: 0 to 100 scale, 0 no effect, 100 complete control
In short: as §1

corn = assay: Test A postemergence; type: in vivo, Zea mays
In short: as §1

blackgrass = assay: Test A postemergence; type: in vivo, Alopecurus myosuroides
In short: as §1

galium = assay: Test A postemergence; type: in vivo, Galium aparine
In short: as §1

rice = assay: Test B flooded paddy test; type: in vivo, Oryza sativa; details: Flood, 250 g ai/ha; 0 to 100 scale where 0 is no effect and 100 is complete control
In short: (§2)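 Compound added straight to paddy water, with pots kept flooded 3 cm above soil, on plants grown to the 2-leaf stage. Visual scoring 0-100 (100 = complete control) against untreated controls after 13 to 15 greenhouse days.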

sedge, umbrella = assay: Test B flooded paddy test; type: in vivo, Cyperus difformis; details: Flood, 250 g ai/ha; 0 to 100 scale where 0 is no effect and 100 is complete control
In short: as §2

Heteranthera limosa = assay: Test B flooded paddy test; type: in vivo; details: Flood, 250 g ai/ha; 0 to 100 scale where 0 is no effect and 100 is complete control
In short: as §2

barnyardgrass [13] = assay: Test B flooded paddy test; type: in vivo, Echinochloa crus-galli; details: Flood, 250 g ai/ha; 0 to 100 scale where 0 is no effect and 100 is complete control
In short: as §2

[14] = 1000 g ai/ha, 0 to 100 scale, 0 no effect, 100 complete control, approx. 10 days
[15] = 1000 g ai/ha, 0 to 100 scale, 0 no effect, 100 complete control
[16] = 31 g ai/ha, visual, approximately 10 days
[17] = 31 g ai/ha, 0 to 100 scale, 0 no effect, 100 complete control
[18] = 125 g ai/ha, 0 to 100 scale where 0 is no effect and 100 is complete control

SMILES	Plant response rating, Rice (rice)	Plant response rating, Sedge, Umbrella (sedge, umbrella)	Plant response rating, Ducksalad (Heteranthera limosa)	Plant response rating, Barnyardgrass (barnyardgrass [13])	Plant response rating, Barnyardgrass (barnyardgrass [1]; 125 g ai/ha)	Plant response rating, Kochia (kochia [2]; 125 g ai/ha)	Plant response rating, Ragweed (ragweed [3]; 125 g ai/ha)	Plant response rating, Ryegrass, Italian (Italian ryegrass [4]; 125 g ai/ha)	Plant response rating, Foxtail, Giant (giant foxtail [5]; 125 g ai/ha)	Plant response rating, Pigweed (pigweed [6]; 125 g ai/ha)	Plant response rating, Barnyardgrass (barnyardgrass [7]; [17])	Plant response rating, Kochia (kochia [8]; [17])	Plant response rating, Ragweed (ragweed [9]; 31 g ai/ha)	Plant response rating, Ryegrass, Italian (Italian ryegrass [10]; 31 g ai/ha)	Plant response rating, Foxtail, Giant (giant foxtail [11]; [17])	Plant response rating, Pigweed (pigweed [12]; 31 g ai/ha)	Plant response rating, Wheat (wheat; 31 g ai/ha)	Plant response rating, Corn (corn; [17])	Plant response rating, Blackgrass (blackgrass; [17])	Plant response rating, Galium (galium; [17])	other results
Fc1cccc(Oc2ncc(Cl)cn2)c1-n1ccnn1 [Compound 159]	0	0	0	0	–	–	–	–	–	–	–	–	–	–	–	–	–	–	–	–	Barnyardgrass plant response rating (barnyardgrass [1]; [14]): 100; Kochia plant response rating (kochia [2]; [14]): 100; Ragweed plant response rating (ragweed [3]; [14]): 100; Ryegrass, Italian plant response rating (Italian ryegrass [4]; [14]): 30; Foxtail, Giant plant response rating (giant foxtail [5]; [14]): 100; Pigweed plant response rating (pigweed [6]; [14]): 100; Plant response rating, Barnyardgrass (barnyardgrass [7]; [15]): 70; Plant response rating, Kochia (kochia [8]; [15]): 100; Plant response rating, Ragweed (ragweed [9]; 1000 g ai/ha): 80; Plant response rating, Ryegrass, Italian (Italian ryegrass [10]; 1000 g ai/ha): 30; Plant response rating, Foxtail, Giant (giant foxtail [11]; [15]): 90; Plant response rating, Pigweed (pigweed [12]; 1000 g ai/ha): 100; Plant response rating, Wheat (wheat; 1000 g ai/ha): 30; Plant response rating, Corn (corn; [15]): 40; Plant response rating, Blackgrass (blackgrass; [15]): 50; Plant response rating, Galium (galium; [15]): 90
FC(F)(F)COc1cnn(-c2c(Br)cccc2Oc2ncc(Cl)cn2)c1 [Compound 128]	0	85	85	0	70	70	0	10	100	100	10	50	0	0	20	80	0	0	30	50	Plant response rating, Barnyardgrass (barnyardgrass [1]; [16]): 10; Plant response rating, Kochia (kochia [2]; [16]): 0; Plant response rating, Ragweed (ragweed [3]; [16]): 0; Plant response rating, Ryegrass, Italian (Italian ryegrass [4]; [16]): 0; Plant response rating, Foxtail, Giant (giant foxtail [5]; [16]): 60; Plant response rating, Pigweed (pigweed [6]; [16]): 100; Barnyardgrass plant response rating (barnyardgrass [7]; [18]): 50; Kochia plant response rating (kochia [8]; [18]): 80; Ragweed plant response rating (ragweed [9]; [18]): 20; Ryegrass, Italian plant response rating (Italian ryegrass [10]; [18]): 30; Foxtail, Giant plant response rating (giant foxtail [11]; [18]): 60; Pigweed plant response rating (pigweed [12]; [18]): 100; Wheat plant response rating (wheat; [18]): 10; Corn plant response rating (corn; [18]): 30; Blackgrass plant response rating (blackgrass; [18]): 40; Galium plant response rating (galium; [18]): 80
FCc1cccc(Oc2ncc(Cl)cn2)c1-n1cc(C(F)(F)F)cn1 [Compound 119]	25	95	95	40	90	100	60	80	100	100	40	70	30	30	30	70	10	10	40	70	Barnyardgrass plant response rating (0 to 100 scale) (barnyardgrass [1]; 31 g ai/ha): 30; Kochia plant response rating (0 to 100 scale) (kochia [2]; 31 g ai/ha): 50; Ragweed plant response rating (0 to 100 scale) (ragweed [3]; 31 g ai/ha): 0; Ryegrass, Italian plant response rating (0 to 100 scale) (Italian ryegrass [4]; 31 g ai/ha): 10; Foxtail, Giant plant response rating (0 to 100 scale) (giant foxtail [5]; 31 g ai/ha): 90; Pigweed plant response rating (0 to 100 scale) (pigweed [6]; 31 g ai/ha): 100; Plant response rating, Barnyardgrass (barnyardgrass [7]; [18]): 70; Plant response rating, Kochia (kochia [8]; [18]): 90; Plant response rating, Foxtail, Giant (giant foxtail [11]; [18]): 80; Plant response rating, Corn (corn; [18]): 50; Plant response rating, Blackgrass (blackgrass; [18]): 70; Plant response rating, Galium (galium; [18]): 100
